How the values were obtained:
MAGE-A3 TCR (TCR-1) [1] = assay: Equilibrium binding of TCR to peptides (ELISA)
Experimental: Peptide binding was also examined in an ELISA format. Biotinylated peptides were captured on neutravidin coated plates. TCR was then prepared in a half-log dilution series starting from 10 uM and titrated onto the peptide captured plates. […] The concentration of TCR required to observe half maximal binding signal (EC50) was then calculated using Graphpad Prism.

MAGE-A3 TCR (TCR-1) [2] = assay: Kinetic binding of TCR to peptides (Octet BLI); conditions: Table 3; Ala mutants of Peptide-5 and controls
Experimental: BLI based kinetic binding of TCR to peptides was measured using a ForteBio Octet RED96 instrument. Biotinylated peptides were first directly captured on streptavidin biosensors. Sensors were quenched using excess biocytin and then baselined in buffer. A dilution series of TCR was made and associated onto the peptide loaded biosensor. Association and dissociation signals were monitored in real-time. Signals were fit to a 1:1 binding model in order to derive binding constants, kon and koff, as well as KD.

[3] = system: TCR-1 binding to MAGE-A3 pMHC; assay: Inhibition of kinetic binding of TCR to its cognate pMHC (BLI); conditions: Table 3
Experimental: First, biotinylated pMHC was captured on streptavidin biosensors. Sensors were quenched using excess biocytin and then baselined in buffer. Inhibitory peptide was titrated in a two fold dilution series starting from 100 uM and pre-incubated with a constant concentration of 50 nM TCR. Peptide and TCR mixtures were then associated onto the pMHC loaded biosensor. Zero concentration of inhibitory peptide or zero concentration of TCR were used as controls. Association and dissociation signals were monitored in real-time. The maximal association signal was normalized from 100% (0 uM inhibitory peptide control) to 0% (0 nM TCR control) and plotted versus log-scale inhibitory peptide concentration.

| Molecule | EC50 (MAGE-A3 TCR (TCR-1) [1]; Table 3) [µM] | binding to TCR-1, Ala scan and control peptides (MAGE-A3 TCR (TCR-1) [1]; relative to Peptide-5) | Octet BLI Binds TCR (MAGE-A3 TCR (TCR-1) [2]) | Octet BLI Competes at 100 uM [3] | EC50 (MAGE-A3 TCR (TCR-1) [1]; Table 2, TCR-1 titrated on captured peptide) [µM] |
| --- | --- | --- | --- | --- | --- |
| CC(C)[C@H](NC(=O)CNC(=O)CN)C(=O)N[C@@H](CO)C(=O)N[C@@H](C)C(=O)N[C@@H](CCCCN)C(=O)N[C@@H](CC(=O)O)C(=O)N[C@H](C(=O)N[C@@H](Cc1ccc(O)cc1)C(=O)N[C@@H](CC(=O)O)C(=O)N[C@@H](CCC(=O)O)C(=O)N[C@@H](C)C(=O)N[C@@H](Cc1ccccc1)C(=O)N[C@@H](CS)C(=O)N[C@@H](Cc1c[nH]c2ccccc12)C(=O)N[C@H](C(=O)NCC(=O)NCC(=O)NCC(=O)NCC(=O)N[C@@H](CO)C(=O)NCCOCCOCCOCCOCCC(=O)N[C@@H](CCCCNC(=O)CCCC[C@@H]1SC[C@@H]2NC(=O)N[C@@H]21)C(N)=O)[C@@H](C)O)C(C)C [Peptide-23] | > 10 |  | Yes | Yes |  |
| CC(C)[C@H](NC(=O)CNC(=O)CN)C(=O)N[C@@H](C)C(=O)N[C@H]1CSSC[C@@H](C(=O)N[C@@H](Cc2c[nH]c3ccccc23)C(=O)N[C@H](C(=O)NCC(=O)NCC(=O)NCC(=O)NCC(=O)N[C@@H](CO)C(=O)NCCOCCOCCOCCOCCC(=O)N[C@@H](CCCCNC(=O)CCCC[C@@H]2SC[C@@H]3NC(=O)N[C@@H]32)C(N)=O)[C@@H](C)O)NC(=O)[C@H](Cc2ccccc2)NC(=O)[C@H](C)NC(=O)[C@H](CCC(=O)O)NC(=O)[C@H](CC(=O)O)NC(=O)[C@H](Cc2ccc(O)cc2)NC(=O)[C@H](C(C)C)NC(=O)[C@H](CC(=O)O)NC(=O)[C@H](CCCCN)NC1=O [Peptide-22] |  |  | No |  |  |
| CC(C)[C@H](NC(=O)CNC(=O)CN)C(=O)N[C@@H](CO)C(=O)N[C@H]1CSSC[C@@H](C(=O)N[C@@H](Cc2c[nH]c3ccccc23)C(=O)N[C@H](C(=O)NCC(=O)NCC(=O)NCC(=O)NCC(=O)N[C@@H](CO)C(=O)NCCOCCOCCOCCOCCC(=O)N[C@@H](CCCCNC(=O)CCCC[C@@H]2SC[C@@H]3NC(=O)N[C@@H]32)C(N)=O)[C@@H](C)O)NC(=O)[C@H](Cc2ccccc2)NC(=O)[C@H](C)NC(=O)[C@H](CCC(=O)O)NC(=O)[C@H](CC(=O)O)NC(=O)[C@H](Cc2ccc(O)cc2)NC(=O)[C@H](C(C)C)NC(=O)[C@H](C)NC(=O)[C@H](CCCCN)NC1=O [Peptide-25] |  |  | Weak |  |  |
| CC(C)[C@H](NC(=O)CNC(=O)CN)C(=O)N[C@@H](CO)C(=O)N[C@H]1CSSC[C@@H](C(=O)N[C@@H](Cc2c[nH]c3ccccc23)C(=O)N[C@H](C(=O)NCC(=O)NCC(=O)NCC(=O)NCC(=O)N[C@@H](CO)C(=O)NCCOCCOCCOCCOCCC(=O)N[C@@H](CCCCNC(=O)CCCC[C@@H]2SC[C@@H]3NC(=O)N[C@@H]32)C(N)=O)[C@@H](C)O)NC(=O)[C@H](Cc2ccccc2)NC(=O)[C@H](C)NC(=O)[C@H](CCC(=O)O)NC(=O)[C@H](CC(=O)O)NC(=O)[C@H](C)NC(=O)[C@H](C(C)C)NC(=O)[C@H](CC(=O)O)NC(=O)[C@H](CCCCN)NC1=O [Peptide-27] | > 10 |  | No |  |  |
| CC(C)[C@H](NC(=O)CNC(=O)CN)C(=O)N[C@@H](CO)C(=O)N[C@H]1CSSC[C@@H](C(=O)N[C@@H](Cc2c[nH]c3ccccc23)C(=O)N[C@H](C(=O)NCC(=O)NCC(=O)NCC(=O)NCC(=O)N[C@@H](CO)C(=O)NCCOCCOCCOCCOCCC(=O)N[C@@H](CCCCNC(=O)CCCC[C@@H]2SC[C@@H]3NC(=O)N[C@@H]32)C(N)=O)[C@@H](C)O)NC(=O)[C@H](Cc2ccccc2)NC(=O)[C@H](C)NC(=O)[C@H](CCC(=O)O)NC(=O)[C@H](CC(=O)O)NC(=O)[C@H](Cc2ccc(O)cc2)NC(=O)[C@H](C(C)C)NC(=O)[C@H](CC(=O)O)NC(=O)[C@H](C)NC1=O [Peptide-24] |  |  | Yes | Yes |  |
| GGNQCWEVYDQEFCSL [Peptide-9] |  |  |  |  | 0.05 |
| CC(C)[C@@H]1NC(=O)[C@H](CC(=O)O)NC(=O)[C@H](CCCCN)NC(=O)[C@@H](NC(=O)[C@H](CO)NC(=O)[C@H](C)NC(=O)CNC(=O)CN)CSSC[C@@H](C(=O)N[C@@H](Cc2c[nH]c3ccccc23)C(=O)N[C@H](C(=O)NCC(=O)NCC(=O)NCC(=O)NCC(=O)N[C@@H](CO)C(=O)NCCOCCOCCOCCOCCC(=O)N[C@@H](CCCCNC(=O)CCCC[C@@H]2SC[C@@H]3NC(=O)N[C@@H]32)C(N)=O)[C@@H](C)O)NC(=O)[C@H](Cc2ccccc2)NC(=O)[C@H](C)NC(=O)[C@H](CCC(=O)O)NC(=O)[C@H](CC(=O)O)NC(=O)[C@H](Cc2ccc(O)cc2)NC1=O [Peptide-21] |  |  | Yes | Yes |  |
| CC(C)[C@H](NC(=O)CNC(=O)CN)C(=O)N[C@@H](CO)C(=O)N[C@H]1CSSC[C@@H](C(=O)N[C@@H](Cc2c[nH]c3ccccc23)C(=O)N[C@H](C(=O)NCC(=O)NCC(=O)NCC(=O)NCC(=O)N[C@@H](CO)C(=O)NCCOCCOCCOCCOCCC(=O)N[C@@H](CCCCNC(=O)CCCC[C@@H]2SC[C@@H]3NC(=O)N[C@@H]32)C(N)=O)[C@@H](C)O)NC(=O)[C@H](Cc2ccccc2)NC(=O)[C@H](C)NC(=O)[C@H](CCC(=O)O)NC(=O)[C@H](CC(=O)O)NC(=O)[C@H](Cc2ccc(O)cc2)NC(=O)[C@H](C)NC(=O)[C@H](CC(=O)O)NC(=O)[C@H](CCCCN)NC1=O [Peptide-26] |  |  | No |  |  |

More lines, now with the values ahead:

| EC50 (MAGE-A3 TCR (TCR-1) [1]; Table 3) [µM] | binding to TCR-1, Ala scan and control peptides (MAGE-A3 TCR (TCR-1) [1]; relative to Peptide-5) | Octet BLI Binds TCR (MAGE-A3 TCR (TCR-1) [2]) | Octet BLI Competes at 100 uM [3] | EC50 (MAGE-A3 TCR (TCR-1) [1]; Table 2, TCR-1 titrated on captured peptide) [µM] | Molecule |
| --- | --- | --- | --- | --- | --- |
| > 10 | lack of binding | No |  |  | EVDPIGHLY [Peptide-34, MAGE-A3 antigen peptide, linear control absent MHC presentation, reference compound] |
|  |  | Yes | Yes |  | CC(C)[C@H](NC(=O)CNC(=O)CN)C(=O)N[C@@H](CO)C(=O)N[C@H]1CSSC[C@@H](C(=O)N[C@@H](Cc2c[nH]c3ccccc23)C(=O)N[C@H](C(=O)NCC(=O)NCC(=O)NCC(=O)NCC(=O)N[C@@H](CO)C(=O)NCCOCCOCCOCCOCCC(=O)N[C@@H](CCCCNC(=O)CCCC[C@@H]2SC[C@@H]3NC(=O)N[C@@H]32)C(N)=O)[C@@H](C)O)NC(=O)[C@H](Cc2ccccc2)NC(=O)[C@H](C)NC(=O)[C@H](CCC(=O)O)NC(=O)[C@H](C)NC(=O)[C@H](Cc2ccc(O)cc2)NC(=O)[C@H](C(C)C)NC(=O)[C@H](CC(=O)O)NC(=O)[C@H](CCCCN)NC1=O [Peptide-28] |
|  |  | Yes | Yes |  | CC(C)[C@H](NC(=O)CNC(=O)CN)C(=O)N[C@@H](CO)C(=O)N[C@H]1CSSC[C@@H](C(=O)N[C@@H](Cc2c[nH]c3ccccc23)C(=O)N[C@@H](C)C(=O)NCC(=O)NCC(=O)NCC(=O)NCC(=O)N[C@@H](CO)C(=O)NCCOCCOCCOCCOCCC(=O)N[C@@H](CCCCNC(=O)CCCC[C@@H]2SC[C@@H]3NC(=O)N[C@@H]32)C(N)=O)NC(=O)[C@H](Cc2ccccc2)NC(=O)[C@H](C)NC(=O)[C@H](CCC(=O)O)NC(=O)[C@H](CC(=O)O)NC(=O)[C@H](Cc2ccc(O)cc2)NC(=O)[C@H](C(C)C)NC(=O)[C@H](CC(=O)O)NC(=O)[C@H](CCCCN)NC1=O [Peptide-33] |
|  |  | Yes | Yes |  | CC(C)[C@H](NC(=O)CNC(=O)CN)C(=O)N[C@@H](CO)C(=O)N[C@H]1CSSC[C@@H](C(=O)N[C@@H](C)C(=O)N[C@H](C(=O)NCC(=O)NCC(=O)NCC(=O)NCC(=O)N[C@@H](CO)C(=O)NCCOCCOCCOCCOCCC(=O)N[C@@H](CCCCNC(=O)CCCC[C@@H]2SC[C@@H]3NC(=O)N[C@@H]32)C(N)=O)[C@@H](C)O)NC(=O)[C@H](Cc2ccccc2)NC(=O)[C@H](C)NC(=O)[C@H](CCC(=O)O)NC(=O)[C@H](CC(=O)O)NC(=O)[C@H](Cc2ccc(O)cc2)NC(=O)[C@H](C(C)C)NC(=O)[C@H](CC(=O)O)NC(=O)[C@H](CCCCN)NC1=O [Peptide-32] |
| > 10 |  | Weak |  |  | CC(C)[C@H](NC(=O)CNC(=O)CN)C(=O)N[C@@H](CO)C(=O)N[C@@H](CS)C(=O)N[C@@H](CCCCN)C(=O)N[C@@H](CC(=O)O)C(=O)N[C@H](C(=O)N[C@@H](Cc1ccc(O)cc1)C(=O)N[C@@H](CC(=O)O)C(=O)N[C@@H](CCC(=O)O)C(=O)N[C@@H](C)C(=O)N[C@@H](Cc1ccccc1)C(=O)N[C@@H](C)C(=O)N[C@@H](Cc1c[nH]c2ccccc12)C(=O)N[C@H](C(=O)NCC(=O)NCC(=O)NCC(=O)NCC(=O)N[C@@H](CO)C(=O)NCCOCCOCCOCCOCCC(=O)N[C@@H](CCCCNC(=O)CCCC[C@@H]1SC[C@@H]2NC(=O)N[C@@H]21)C(N)=O)[C@@H](C)O)C(C)C [Peptide-31] |
|  |  | No |  |  | CC(C)[C@H](NC(=O)CNC(=O)CN)C(=O)N[C@@H](CO)C(=O)N[C@H]1CSSC[C@@H](C(=O)N[C@@H](Cc2c[nH]c3ccccc23)C(=O)N[C@H](C(=O)NCC(=O)NCC(=O)NCC(=O)NCC(=O)N[C@@H](CO)C(=O)NCCOCCOCCOCCOCCC(=O)N[C@@H](CCCCNC(=O)CCCC[C@@H]2SC[C@@H]3NC(=O)N[C@@H]32)C(N)=O)[C@@H](C)O)NC(=O)[C@H](Cc2ccccc2)NC(=O)[C@H](C)NC(=O)[C@H](C)NC(=O)[C@H](CC(=O)O)NC(=O)[C@H](Cc2ccc(O)cc2)NC(=O)[C@H](C(C)C)NC(=O)[C@H](CC(=O)O)NC(=O)[C@H](CCCCN)NC1=O [Peptide-29] |
| > 10 |  | No |  |  | CC(C)[C@H](NC(=O)CNC(=O)CN)C(=O)N[C@@H](CO)C(=O)N[C@H]1CSSC[C@@H](C(=O)N[C@@H](Cc2c[nH]c3ccccc23)C(=O)N[C@H](C(=O)NCC(=O)NCC(=O)NCC(=O)NCC(=O)N[C@@H](CO)C(=O)NCCOCCOCCOCCOCCC(=O)N[C@@H](CCCCNC(=O)CCCC[C@@H]2SC[C@@H]3NC(=O)N[C@@H]32)C(N)=O)[C@@H](C)O)NC(=O)[C@H](C)NC(=O)[C@H](C)NC(=O)[C@H](CCC(=O)O)NC(=O)[C@H](CC(=O)O)NC(=O)[C@H](Cc2ccc(O)cc2)NC(=O)[C@H](C(C)C)NC(=O)[C@H](CC(=O)O)NC(=O)[C@H](CCCCN)NC1=O [Peptide-30] |
| > 10 |  | No |  |  | ESDPIVAQY [Peptide-35, Titin peptide, linear control absent MHC presentation, reference compound] |

Reference: patent US20230220105A1, “TUMOR ACTIVATED T CELL ENGAGERS AND METHODS OF USE THEREOF” (Janux Therapeutics, Inc., priority 2019, published 2023)
